SMILES strings stand for the structures.

`O=C(N[C@H](Cc1ccc(F)cc1)C(=O)O)OCc1cc2cc(-c3ccc4c(c3)OCO4)ccc2o1` [Compound 116, (R)-2-(5-benzo[1,3]dioxol-5-yl-benzofuran-2-ylmethoxycarbonylamino)-3-(4-fluoro-phenyl)-propionic acid] showed a melting point of 132 to 134.5 °C.

`O=C(N[C@H](Cc1ccccc1)C(=O)O)OCc1ccc2[nH]c(-c3ccccc3)nc2c1` [Compound 129, (R)-3-Phenyl-2-(2-phenyl-1H-benzoimidazol-5-ylmethoxycarbonylamino)-propionic acid] came in with a melting point of 165 to 215 °C. For `O=C(N[C@H](Cc1ccccc1)C(=O)O)OCc1ccc2oc(-c3ccc(F)cc3)nc2c1` [Compound 158, (R)-2-[2-(4-fluoro-phenyl)-benzoxazol-5-ylmethoxycarbonylamino]-3-phenyl-propionic acid] the value was 208.2 to 208.5 °C. As for `O=C(NC(Cc1ccccc1)C(=O)O)OCc1ccc(NC(=O)c2ccccc2)cc1` (centres unmarked) [Compound 181, 2-(4-benzoylamino-benzyloxycarbonylamino)-3-phenyl-propionic acid], the figure is 196.9 to 198.1 °C; as for `O=C(N[C@H](Cc1ccc(F)cc1)C(=O)O)OCc1ccc2oc(-c3ccc(F)cc3)nc2c1` [Compound 157, (R)-3-(4-fluoro-phenyl)-2-[2-(4-fluoro-phenyl)-benzoxazol-5-ylmethoxycarbonylamino]-propionic acid], 197.1 to 198.7 °C.

With `O=C(NC(Cc1ccccc1)C(=O)O)OCc1ccc(COCc2ccccc2)cc1` (centres unmarked) [Compound 90, 2-(4-benzyloxymethyl-benzyloxycarbonylamino)-3-phenyl-propionic acid], the melting point lay in the range of 78.3 to 79.9 °C.

With `O=C(NC(Cc1cccc(NS(=O)(=O)c2ccccc2)c1)C(=O)O)OCc1cc2cc(-c3ccccc3)ccc2o1` (centres unmarked) [Compound 171, 3-(3-Benzenesulfonylamino-phenyl)-2-(5-phenyl-benzofuran-2-ylmethoxycarbonylamino)-propionic acid], the melting point fell in the range of 105 to 108 °C. As for `O=C(N[C@H](Cc1ccccc1)C(=O)O)OCc1cc2cc(-c3cccnc3)ccc2o1` [Compound 124, (R)-3-phenyl-2-(5-pyridin-3-yl-benzofuran-2-ylmethoxycarbonylamino)-propionic acid], the figure is 143 to 145.7 °C.

What is called melting point is the temperature, or range, at which the solid turns liquid.

(Values after patent publication US7056903B2, “Carboxylic acid derivatives as IP antagonists” (Syntex (U.S.A.) LLC, priority 2000, dated 2006).)
